The record followed here is PMC6838110 (Nature Communications, 2019).

The IC50 is the concentration that inhibits the measured activity by half.

What all share (assay type): cell-based
One assay has as its target T1, PI3Kγ (Mus musculus, UniProt Q9JHG7).
T1 construct: RAW-264 (PI3Kγ); endogenous in cells; host or cells: RAW-264
Nature of the assay: PI3K isoform assay, pAKT Thr308 ELISA in RAW-264 cells. The note with it: geometric mean; Supplementary Table 1; read-out: Compound IC50 PI3K (third PI3K line). As for the experimental part:
(§1) BT474 (PI3Kα), MDA-MB-468 (PI3Kβ), RAW-264 (PI3Kγ) and JEKO-1 (PI3Kδ). Levels of phospho-AKT Thr308, a downstream target for PI3K, was used as a marker of PI3K […]
RAW-264 and JEKO-1 cells were seeded directly into 384-well plates containing compounds (1 x 10^5 cells/well) and incubated for 1 hour. Compounds were added to cells/plates using an Echo 555 Liquid Handler (LabCyte). […]
X-100) for 30 minutes at RT. To stimulate AKT phosphorylation, C5a (complement 5a) anaphylatoxin trifluoroacetate salt (20 nM; Bachem) was added to RAW-264 cells for 3 minutes and anti-human IgM (120 µg/mL; Stratech) was added to JEKO-1 cells for 10 minutes prior to cell lysis. RAW-264 and JEKO-1 cells were then lysed for 30 minutes at RT. Lysates were transferred onto ELISA plates pre-coated with anti-AKT antibody (Cell Signalling #7144) that had previously been blocked with 1% BSA in PBS-T and incubated overnight at 4°C. Plates were then incubated with mouse anti-phosphoAKT Thr308 (Cell Signalling Technology #7144) for 2 hours, followed by an anti-mouse HRP-conjugated antibody (Cell Signalling Technology #7144) for 2 hours. Plates were washed between antibody incubation steps with PBS-T. QuantaBlu substrate working solution […]
(§2) (ThermoScientific #15169) was added to each well according to the manufacturer’s instructions and stop solution was added 60 minutes later. Fluorescence was measured
On the technique in general: ELISA stands for enzyme-linked immunosorbent assay.

The target in the next assay is T2, ATM (Homo sapiens, UniProt Q13315).
T2 construct: ATM (pATM Ser1981) in HT29; endogenous in cells; host or cells: HT-29
Kind of assay: ATM pSer1981 imaging assay in irradiated HT29 cells. The conditions noted are these: geometric mean; Supplementary Table 1; read-out: Compound IC50 ATM. How it is done: Following this final incubation, the plates were washed twice using PBS, s ealed with black plate seals and then read on a CellInsight™ imaging platform (Thermo Scientific) with 10x objective. A two-laser setup was used to analyse nuclear staining with Hoechst (405 nm) and secondary antibody staining of pATM (488 nm). […]

The target of another assay is T3, ATR (Homo sapiens, UniProt Q13535).
T3 construct: ATR (pCHK1 Ser345) in HT29; endogenous in cells; host or cells: HT-29
T3 sequence (Q13535 whole entry): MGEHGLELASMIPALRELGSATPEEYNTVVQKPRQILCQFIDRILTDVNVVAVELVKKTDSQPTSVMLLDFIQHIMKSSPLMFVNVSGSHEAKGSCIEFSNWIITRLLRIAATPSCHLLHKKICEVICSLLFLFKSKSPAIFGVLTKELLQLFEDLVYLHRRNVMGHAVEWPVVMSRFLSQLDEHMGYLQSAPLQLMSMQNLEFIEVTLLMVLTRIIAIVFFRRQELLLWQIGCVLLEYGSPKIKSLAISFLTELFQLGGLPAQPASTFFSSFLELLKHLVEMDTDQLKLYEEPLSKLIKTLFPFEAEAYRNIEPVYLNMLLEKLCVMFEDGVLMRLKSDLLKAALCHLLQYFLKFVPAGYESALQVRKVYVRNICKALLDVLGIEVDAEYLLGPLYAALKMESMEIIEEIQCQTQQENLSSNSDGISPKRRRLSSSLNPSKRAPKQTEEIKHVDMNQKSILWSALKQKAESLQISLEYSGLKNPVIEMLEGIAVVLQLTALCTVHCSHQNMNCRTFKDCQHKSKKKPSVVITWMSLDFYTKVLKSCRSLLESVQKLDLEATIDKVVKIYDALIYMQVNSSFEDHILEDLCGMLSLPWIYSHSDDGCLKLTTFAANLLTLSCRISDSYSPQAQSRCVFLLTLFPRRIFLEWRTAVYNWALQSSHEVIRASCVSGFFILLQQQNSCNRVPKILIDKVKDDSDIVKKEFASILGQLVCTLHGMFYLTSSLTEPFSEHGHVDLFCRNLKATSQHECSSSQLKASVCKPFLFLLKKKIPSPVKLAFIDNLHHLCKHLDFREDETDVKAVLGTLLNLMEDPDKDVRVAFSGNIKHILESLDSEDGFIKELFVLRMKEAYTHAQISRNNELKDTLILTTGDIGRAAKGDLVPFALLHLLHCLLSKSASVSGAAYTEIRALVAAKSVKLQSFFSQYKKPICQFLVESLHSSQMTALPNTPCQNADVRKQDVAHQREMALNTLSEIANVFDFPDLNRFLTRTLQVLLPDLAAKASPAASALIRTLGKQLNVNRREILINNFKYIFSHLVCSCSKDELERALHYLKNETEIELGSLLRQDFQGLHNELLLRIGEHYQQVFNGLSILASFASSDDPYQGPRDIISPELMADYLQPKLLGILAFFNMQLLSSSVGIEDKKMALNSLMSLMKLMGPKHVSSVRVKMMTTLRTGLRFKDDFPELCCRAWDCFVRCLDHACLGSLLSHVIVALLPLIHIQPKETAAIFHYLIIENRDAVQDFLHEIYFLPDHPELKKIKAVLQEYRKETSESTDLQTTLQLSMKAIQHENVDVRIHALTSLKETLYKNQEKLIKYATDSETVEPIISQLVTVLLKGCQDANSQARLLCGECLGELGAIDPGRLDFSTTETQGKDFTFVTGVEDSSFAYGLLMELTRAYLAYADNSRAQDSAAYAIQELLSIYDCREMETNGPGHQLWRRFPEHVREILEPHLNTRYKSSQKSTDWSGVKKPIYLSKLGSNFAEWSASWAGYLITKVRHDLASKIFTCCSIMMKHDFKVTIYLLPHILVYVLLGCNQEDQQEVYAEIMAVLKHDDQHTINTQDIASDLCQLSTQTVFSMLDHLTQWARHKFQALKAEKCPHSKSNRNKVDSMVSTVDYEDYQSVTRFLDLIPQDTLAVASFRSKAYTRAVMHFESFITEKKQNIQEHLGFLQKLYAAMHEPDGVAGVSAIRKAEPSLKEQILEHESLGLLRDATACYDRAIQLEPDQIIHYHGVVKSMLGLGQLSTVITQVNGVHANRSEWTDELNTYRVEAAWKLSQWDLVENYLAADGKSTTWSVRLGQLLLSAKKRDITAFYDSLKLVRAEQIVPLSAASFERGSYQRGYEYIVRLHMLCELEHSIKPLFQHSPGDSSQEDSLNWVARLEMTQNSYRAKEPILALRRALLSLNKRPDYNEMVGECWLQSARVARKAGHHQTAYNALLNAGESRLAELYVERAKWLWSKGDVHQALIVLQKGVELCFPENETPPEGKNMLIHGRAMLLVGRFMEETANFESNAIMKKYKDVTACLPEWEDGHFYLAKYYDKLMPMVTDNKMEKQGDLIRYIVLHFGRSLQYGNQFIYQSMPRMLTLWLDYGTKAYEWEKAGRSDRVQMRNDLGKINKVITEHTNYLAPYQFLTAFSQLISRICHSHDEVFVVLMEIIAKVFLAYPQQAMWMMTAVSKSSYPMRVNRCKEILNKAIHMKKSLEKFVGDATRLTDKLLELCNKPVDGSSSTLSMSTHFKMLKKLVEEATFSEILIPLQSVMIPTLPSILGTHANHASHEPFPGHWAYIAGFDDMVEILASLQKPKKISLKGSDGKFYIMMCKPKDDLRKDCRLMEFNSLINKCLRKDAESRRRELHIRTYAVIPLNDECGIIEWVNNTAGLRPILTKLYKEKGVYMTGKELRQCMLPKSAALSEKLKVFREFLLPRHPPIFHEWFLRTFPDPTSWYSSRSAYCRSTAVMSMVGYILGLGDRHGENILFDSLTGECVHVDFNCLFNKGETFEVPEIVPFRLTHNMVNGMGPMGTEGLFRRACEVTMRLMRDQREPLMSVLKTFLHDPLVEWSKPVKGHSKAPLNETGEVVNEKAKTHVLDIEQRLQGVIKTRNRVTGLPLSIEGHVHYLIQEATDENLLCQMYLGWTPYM
T3 sequence (Q8WXE1 whole entry partner): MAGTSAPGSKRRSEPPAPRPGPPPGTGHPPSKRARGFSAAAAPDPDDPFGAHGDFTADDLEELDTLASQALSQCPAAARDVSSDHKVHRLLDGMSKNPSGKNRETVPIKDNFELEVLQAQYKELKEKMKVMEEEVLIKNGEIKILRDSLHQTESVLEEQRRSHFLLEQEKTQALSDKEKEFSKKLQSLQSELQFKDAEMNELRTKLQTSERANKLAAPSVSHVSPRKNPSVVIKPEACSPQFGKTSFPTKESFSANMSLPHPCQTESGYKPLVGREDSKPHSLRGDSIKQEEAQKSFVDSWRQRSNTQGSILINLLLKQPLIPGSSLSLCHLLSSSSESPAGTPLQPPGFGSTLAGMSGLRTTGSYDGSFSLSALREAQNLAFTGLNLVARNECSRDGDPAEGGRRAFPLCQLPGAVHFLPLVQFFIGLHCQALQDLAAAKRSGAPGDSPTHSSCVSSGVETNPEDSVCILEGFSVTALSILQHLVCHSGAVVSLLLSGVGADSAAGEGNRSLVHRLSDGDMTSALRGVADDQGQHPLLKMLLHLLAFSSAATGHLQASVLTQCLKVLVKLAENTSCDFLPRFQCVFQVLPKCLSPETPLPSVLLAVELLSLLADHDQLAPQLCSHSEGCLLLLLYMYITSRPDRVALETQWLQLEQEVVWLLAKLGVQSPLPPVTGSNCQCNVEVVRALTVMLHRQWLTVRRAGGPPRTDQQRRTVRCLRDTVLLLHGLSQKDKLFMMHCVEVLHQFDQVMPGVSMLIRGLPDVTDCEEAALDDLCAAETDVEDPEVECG
Nature of the assay: ATR (pCHK1 Ser345) imaging assay in 4NQO-treated HT29 cells. The conditions noted are these: geometric mean; Supplementary Table 1; read-out: Compound IC50 ATR. How it is done: HT-29 cells by an imaging-based assay. HT-29 cells were dispensed into 384-well Greiner plates (#781090) to give 6000 cells/well in a total volume of 40 µL cell media and incubated overnight. Test compounds and reference controls were dosed directly into the cell plates using a Labcyte Echo 555 acoustic dispenser. The cell plates were then incubated for 1 hour at 37°C before being dosed with 3 µM of 4NQO using a Labcyte Echo 555 acoustic dispenser. The cells were incubated for a further 1 h our and were then fixed by the addition of 20 µL 3.7% formaldehyde in PBS and incubated for 20 min utes at RT. The plates were subsequently washed on a Bioteck EL406 3x using PBS-T, and then permeabilized with the addition of 20 µL of 0.1% Triton X-100 in PBS for 10 minutes at RT. Following permeabilization, the plates were washed 3x with PBST and incubated with 20 µL of primary antibody (1:250 anti-Chk1 pSer345 in PBS-T) overnight at 4°C. The next day, the plates were washed 3x with PBS and incubated with 20 µL of secondary antibody (1:500 AlexaFluor 488 goat anti-rabbit IgG and 1:5000 Hoechst stock solution [10 mg/mL ] in antibody buffer) for 2 hours at RT. Following this final incubation, the plates were washed 3x with PBS, sealed with black plate seals and then read on a CellInsight imaging platform (Thermo Scientific) with 10x objective. A two -laser setup was used to analyse nuclear staining with Hoechst (405 nm) and secondary antibody staining of pChk1 (488 nm). […]

In assay [1] the test system is secondary pharmacology target. Kind of assay: Cellular selectivity across secondary pharmacology targets. The note with it: versus cellular DNA-PKcs.
A further assay addresses T4, mTOR (Homo sapiens, UniProt P42345).
T4 construct: mTOR (pAKT Ser473) in MDA-MB-468; endogenous in cells; host or cells: MDA-MB-468
Kind of assay: mTOR (pAKT Ser473) imaging assay in MDA-MB-468 cells. The conditions noted are these: geometric mean; Supplementary Table 1; read-out: Compound IC50 mTOR.

A further assay deals with PI3Kα (Homo sapiens, UniProt P42336). Kind of assay: PI3K isoform assay, pAKT Thr308 ELISA in BT474 cells. The note with it: geometric mean; Supplementary Table 1; read-out: Compound IC50 PI3K (first PI3K line). As for the experimental part:
as §1
(§3) BT474 and MDA -MB-468 cells were seeded into 384-well plates
(§4) (5600 cells/well) and incubated overnight prior to compound treatment for 2 hours. […]
(§5) Compounds were added to […]
(§6) cells/plates using an Echo 555 Liquid Handler (LabCyte). BT474 and MDA -MB-468 cells were lysed in 25 µL lysis buffer (25 mM Tris-HCl, 3 mM EDTA, 3 mM EGTA, 50 mM NaF, 2 mM Na3VO4, 0.27 M sucrose, 10 mM β-glycerophosphate, 5 mM Na2P2O7, 0.5% Triton […]
(§7) X-100) for 30 minutes at RT. […]
(§8) Lysates were transferred onto ELISA plates pre-coated with anti-AKT antibody (Cell Signalling #7144) that had previously been blocked with 1% BSA in PBS-T and incubated overnight at 4°C. Plates were then incubated with mouse anti-phosphoAKT Thr308 (Cell Signalling Technology #7144) for 2 hours, followed by an anti-mouse HRP-conjugated antibody (Cell Signalling Technology #7144) for 2 hours. Plates were washed between antibody incubation steps with PBS-T. QuantaBlu substrate working solution […]
as §2

In a further assay the target is T5, DNA-PKcs (Homo sapiens, UniProt P78527).
T5 construct: evaluated in A549 cells following IR by measuring DNA-PKcs autophosphorylation on Ser2056; endogenous in cells; host or cells: A549
Kind of assay: DNA-PKcs autophosphorylation (pSer2056) ELISA in IR-treated A549 cells. The conditions noted are these: geometric mean; Supplementary Table 1; read-out: Compound IC50 DNA-PKcs.

A further assay has as its target T6, PI3Kδ (Homo sapiens, UniProt O00329).
T6 construct: JEKO-1 (PI3Kδ) cells; endogenous in cells; host or cells: JEKO-1
Nature of the assay: PI3K isoform assay, pAKT Thr308 ELISA in JEKO-1 cells. The note with it: geometric mean; Supplementary Table 1; read-out: Compound IC50 PI3K (fourth PI3K line). As for the experimental part: as §1
RAW-264 and JEKO-1 cells were seeded directly into 384-well plates containing compounds (1 x 10^5 cells/well) and incubated for 1 hour. Compounds were added to cells/plates using an Echo 555 Liquid Handler (LabCyte). BT474 and MDA -MB-468 cells were lysed in 25 µL lysis buffer (25 mM Tris-HCl, 3 mM EDTA, 3 mM EGTA, 50 mM NaF, 2 mM Na3VO4, 0.27 M sucrose, 10 mM β-glycerophosphate, 5 mM Na2P2O7, 0.5% Triton […]
as §7
3 minutes and anti-human IgM (120 µg/mL; Stratech) was added to JEKO-1 cells for 10 minutes prior to cell lysis. RAW-264 and JEKO-1 cells were then lysed for 30 minutes at RT. Lysates were transferred onto ELISA plates pre-coated with anti-AKT antibody (Cell Signalling #7144) that had previously been blocked with 1% BSA in PBS-T and incubated overnight at 4°C. Plates were then incubated with mouse anti-phosphoAKT Thr308 (Cell Signalling Technology #7144) for 2 hours, followed by an anti-mouse HRP-conjugated antibody (Cell Signalling Technology #7144) for 2 hours. […]
as §2

The target in the next assay is T7, PI3Kβ (Homo sapiens, UniProt P42338).
T7 construct: MDA-MB-468 (PI3Kβ); endogenous in cells; host or cells: MDA-MB-468
Kind of assay: PI3K isoform assay, pAKT Thr308 ELISA in MDA-MB-468 cells. The conditions noted are these: geometric mean; Supplementary Table 1; read-out: Compound IC50 PI3K (second PI3K line). As for the experimental part: as §1, §3, §4, §5, §6, §7, §8, §2

Sequence of PI3Kα (P42336 187-1068 limits assumed): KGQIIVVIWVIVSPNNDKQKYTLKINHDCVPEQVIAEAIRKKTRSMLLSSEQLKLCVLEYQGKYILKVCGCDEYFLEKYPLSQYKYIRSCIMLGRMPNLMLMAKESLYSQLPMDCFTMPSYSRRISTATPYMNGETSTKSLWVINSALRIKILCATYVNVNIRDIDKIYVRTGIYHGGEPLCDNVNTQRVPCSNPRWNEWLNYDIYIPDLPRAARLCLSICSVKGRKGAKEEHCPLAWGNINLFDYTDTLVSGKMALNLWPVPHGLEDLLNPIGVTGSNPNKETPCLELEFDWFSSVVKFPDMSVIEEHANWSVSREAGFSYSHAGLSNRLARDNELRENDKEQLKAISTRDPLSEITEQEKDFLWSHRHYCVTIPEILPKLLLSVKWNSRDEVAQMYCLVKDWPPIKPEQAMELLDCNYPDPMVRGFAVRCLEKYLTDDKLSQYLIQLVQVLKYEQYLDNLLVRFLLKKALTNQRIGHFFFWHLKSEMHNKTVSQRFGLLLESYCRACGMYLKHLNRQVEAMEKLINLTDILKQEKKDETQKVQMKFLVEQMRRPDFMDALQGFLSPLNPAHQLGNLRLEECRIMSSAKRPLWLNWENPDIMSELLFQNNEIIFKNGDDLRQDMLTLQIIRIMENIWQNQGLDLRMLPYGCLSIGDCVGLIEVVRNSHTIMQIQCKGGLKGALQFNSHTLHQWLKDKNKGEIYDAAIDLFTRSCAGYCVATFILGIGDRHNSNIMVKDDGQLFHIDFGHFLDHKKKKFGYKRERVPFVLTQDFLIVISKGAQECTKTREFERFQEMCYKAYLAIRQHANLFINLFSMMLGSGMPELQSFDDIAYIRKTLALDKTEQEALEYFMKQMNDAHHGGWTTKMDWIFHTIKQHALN

As to `COc1ccc([C@@H](O)c2cc(-c3ncnc4cc(N5CCOCC5)ccc34)c(F)cc2Cl)nn1` [M3814], the IC50 at PI3Kγ was 1.59 µM; at ATM it was over 30 µM; on ATR it was over 30 µM.
As to `O=c1cc(N2CCOCC2)oc2c(-c3cccc4c3sc3ccccc34)cccc12` [NU7441], the “selectivity in at least one secondary pharmacology target” value in assay [1] is on record as under 10 fold. For the same compound, the IC50 on ATM is over 3.1 µM; on mTOR, 1800 nM; at PI3Kα, 7.8 µM; on DNA-PKcs, 185 nM; at ATR, over 30 µM.
As to `CNC(=O)c1ccnc2c([C@H](C)CNc3cc(-c4cnc(C)nc4)ncn3)cccc12` [M9831/VX-984], the concentration for half-maximal inhibition (IC50) on PI3Kγ was 7.1 µM; at ATM it was over 30 µM; at mTOR, over 30000 nM; at PI3Kα, over 20 µM; at PI3Kδ it was over 30 µM; on DNA-PKcs it was 115 nM. The IC50 at ATR and at PI3Kβ was over 30 µM throughout.
As for `CCN1CCN(CC(=O)Nc2ccc(-c3cccc4c(=O)cc(N5CCOCC5)oc34)c3sc4ccccc4c23)CC1` [KU-0060648], the “selectivity in at least one secondary pharmacology target” value in [1] is under 10 fold. The IC50 on ATM is over 30 µM; at mTOR, 150 nM; at PI3Kα, 0.2 µM; on DNA-PKcs, 55 nM; on ATR, over 30 µM.
